This note sets out measurements from patent US20250154169A1, “COMPOUNDS AND METHODS FOR MODULATING SPLICING” (REMIX THERAPEUTICS INC., priority 2021, published 2025).

The subject of one assay is HTT mRNA. Put plainly: Splicing RT-qPCR assay, HTT canonical (CJ) and alternative (AJ) junction mRNA. In kind it is cell-based, human. Conditions: Homo sapiens, A673 or K562 cells, 24 hours compound treatment; for IC50: 24 h, read-out: HTT CJ (IC50, decrease in canonical junction mRNA); for AC50: read-out: HTT AJ (AC50, increase in alternative junction mRNA). The protocol: (§1) Compounds described herein were used to modulate RNA transcript abundance in cells. The expression of a target mRNA was measured by detecting the formation of an exon-exon junction in the canonical transcript (CJ). A compound mediated exon-inclusion event was detected by observing an increase in formation of a new junction with an alternative exon (AJ). Real-time qPCR assays were used to detect these splicing switches and interrogate the potency of various compounds towards different target genes. A high-throughput real time quantitative PCR (RT-qPCR) assay was developed to measure these two isoforms of the mRNA (CJ and AJ) for exemplary genes, such as HTT, SMN2, and MYB, together with a control housekeeping gene, GAPDH or GUSB or PPIA, used for normalization. Briefly, the A673 or K562 cell line was treated with various compounds described herein (e.g., compounds of Formula (I)). After treatment, the levels of the HTT, MYB, or SMN2 mRNA targets were determined from each sample of cell lysate by cDNA synthesis followed by qPCR.
(§2) • Cells-to-CT 1-step kit: ThermoFisher A25602, Cells-to-CT lysis reagent: ThermoFisher 4391851C, TaqMan™ Fast Virus 1-Step Master Mix: ThermoFisher 4444436 • GAPDH: VIC-PL, ThermoFisher 4326317E (Assay: Hs99999905_m1)—used for K562/suspension cell lines • GUSB: VIC-PL, ThermoFisher 4326320E (Assay: Hs99999908_m1)—used for K562/suspension cell lines • PPIA: VIC-PL, ThermoFisher 4326316E (Assay: Hs99999904_m1)—used for A673/adherent cell lines
(§3) The A673 cell line was cultured in DMEM with 10% FBS. Cells were diluted with full growth media and plated in a 96-well plate (15,000 cells in 100 ul media per well). The plate was incubated at 37° C. with 5% CO2 for 24 hours to allow cells to adhere. An 11-point 3-fold serial dilution of the compounds was made in DMSO then diluted in media in an intermediate plate. Compounds were transferred from the intermediate plate to the cell plate with the top dose at a final concentration of 10 uM in the well. Final DMSO concentration was kept at or below 0.25%. The cell plate was returned to the incubator at 37° C. with 5% CO2 for an additional 24 hours.
(§4) The K562 cell line was cultured in IMDM with 10% FBS. For K562, cells were diluted with full growth media and plated in either a 96-well plate (50,000 cells in 50 uL media per well) or a 384-well plate (8,000-40,000 cells in 45 uL media per well). An 11-point 3-fold serial dilution of the compounds were made in DMSO then diluted in media in an intermediate plate. Compound was transferred from the intermediate plate to the cell plate with the top dose at a final concentration of 10 uM in the well. Final DMSO concentration was kept at or below 0.25%. Final volume was 100 uL for 96-well plate and 50 uL for 384-well plate. The cell plate was then placed in an incubator at 37° C. with 5% CO2 for 24 hours.
(§5) The cells were then gently washed with 50 uL-100 uL cold PBS before proceeding to addition of lysis buffer. 30 uL-50 uL of room temperature lysis buffer with DNAse I (and optionally RNAsin) was added to each well. Cells were shaken/mixed thoroughly at room temperature for 5-10 minutes for lysis to take place and then 3 uL-5 uL of room temperature stop solution was added and wells were shaken/mixed again. After 2-5 minutes, the cell lysate plate was transferred to ice for RT-qPCR reaction setup. The lysates could also be frozen at −80° C. for later use.
(§6) In some cases, a direct lysis buffer was used. An appropriate volume of 3× lysis buffer (10 mM Tris, 150 mM NaCl, 1.5%-2.5% Igepal and 0.1-1 U/uL RNAsin, pH 7.4) was directly added to either K562 or A673 cells in media and mixed by pipetting 3 times. The plates were then incubated at room temperature with shaking/rocking for 20-50 minutes to allow for lysis to take place. After this time, the cell lysate plate was transferred to ice to set up for the RT-qPCR reactions. The lysates could also be frozen at −80° C. for later use. […]

The next assay has as its system MYB mRNA. Put plainly: Splicing RT-qPCR assay, MYB canonical (CJ) and alternative (AJ) junction mRNA. Conditions: Homo sapiens, 24 h, A673 or K562 cells, 24 hours compound treatment, RT-qPCR; for AC50: read-out: MYB AJ (AC50, increase in alternative junction mRNA); for IC50: read-out: MYB CJ (IC50, decrease in canonical junction mRNA). In kind it is cell-based, human. The method, then:
as §1, §2, §3, §4, §5, §6

Structures are written as SMILES.

`CCn1cc2c(N3CC[C@H](NC)C3)cc(F)c(C(=O)Nc3cc(F)c4nc(C)cn4c3)c2n1` [Compound 478, 2-ethyl-6-fluoro-N-{8-fluoro-2-methylimidazo[1,2-a]pyridin-6-yl}-4-[(3S)-3-(methylamino)pyrrolidin-1-yl]indazole-7-carboxamide; bis(trifluoroacetic acid)]: the results for the IC50 in the assay with HTT mRNA and in the assay with MYB mRNA were 1000 to 10000 nM and < 100 nM, respectively. The concentration at half-maximal activity (AC50) (usually the concentration giving half of the maximal activity seen) in the assay on HTT mRNA is > 10000 nM; with MYB mRNA it was 100 to 1000 nM.

As to `CCn1cc2c(N3CC[C@@H](NC)C3)cc(F)c(C(=O)Nc3cc(F)c4nc(C)cn4c3)c2n1` [Compound 479, 2-ethyl-6-fluoro-N-{8-fluoro-2-methylimidazo[1,2-a]pyridin-6-yl}-4-[(3R)-3-(methylamino)pyrrolidin-1-yl]indazole-7-carboxamide; trifluoroacetic acid], in the assay with HTT mRNA, the IC50 (in general, the concentration that gives 50% inhibition) fell in the range of 1000 to 10000 nM and the AC50 was 1000 to 10000 nM. Also, in the assay on MYB mRNA, the AC50 was < 100 nM and the IC50 is < 100 nM.

As for `CCn1cc2c(N3CCN(C)CC3)cc(F)c(C(=O)Nc3cc(F)c4nc(C)cn4c3)c2n1` [Compound 481, 2-ethyl-6-fluoro-N-{8-fluoro-2-methylimidazo[1,2-a]pyridin-6-yl}-4-(4-methylpiperazin-1-yl) indazole-7-carboxamide], in the assay with HTT mRNA, the IC50 fell in the range of 100 to 1000 nM and the AC50 lay within 1000 to 10000 nM. For the same molecule, in the assay with MYB mRNA, the AC50 was 100 to 1000 nM and the half-inhibitory concentration (IC50) is < 100 nM.

With `CCn1cc2c(N3CC4(CCCN4)C3)ccc(C(=O)Nc3cc(F)c4nc(C)cn4c3)c2n1` [Compound 482, 4-{2,5-diazaspiro[3.4]octan-2-yl}-2-ethyl-N-{8-fluoro-2-methylimidazo[1,2-a]pyridin-6-yl}indazole-7-carboxamide], in the assay with HTT mRNA, the IC50 is > 10000 nM and the AC50 is > 10000 nM. Also, in the assay with MYB mRNA, the AC50 is 1000 to 10000 nM and the 50% inhibitory concentration (IC50) fell in the range of 1000 to 10000 nM.

In the case of `Cc1cc(NC(=O)c2ccc(N3CCNCC3)c3cn(C)nc23)c(O)c2cn(C)nc12` [Compound 484, N-(4-hydroxy-2,7-dimethylindazol-5-yl)-2-methyl-4-(piperazin-1-yl) indazole-7-carboxamide], in the assay on HTT mRNA, the IC50 was > 10000 nM and the AC50 is > 10000 nM. In the assay on MYB mRNA, the AC50 is > 10000 nM and the IC50 is > 10000 nM.

As for `Cc1cn2cc(NC(=O)c3ccc(N4CCOCC4)c4cn(C)nc34)cc(F)c2n1` [Compound 486, N-{8-fluoro-2-methylimidazo[1,2-a]pyridin-6-yl}-2-methyl-4-(morpholin-4-yl) indazole-7-carboxamide], in the assay on HTT mRNA, the half-inhibitory concentration (IC50) was in the range of 100 to 1000 nM and the AC50 is 100 to 1000 nM. In addition, in the assay on MYB mRNA, the AC50 was in the range of 100 to 1000 nM and the half-maximal inhibitory concentration (IC50) lay in the range of 100 to 1000 nM.

Regarding `Cc1cn2cc(NC(=O)c3ccc(N4CCCC4)c4cn(C)nc34)cc(F)c2n1` [Compound 487, N-{8-fluoro-2-methylimidazo[1,2-a]pyridin-6-yl}-2-methyl-4-(pyrrolidin-1-yl) indazole-7-carboxamide], in the assay with HTT mRNA, the IC50 is 1000 to 10000 nM and the AC50 lay in the range of 1000 to 10000 nM. In the assay on MYB mRNA, the AC50 lay in the range of 1000 to 10000 nM and the IC50 was in the range of 1000 to 10000 nM.

Consider `Cc1nnc2ccc(NC(=O)c3ccc(N4CCNCC4)c4cn(C)nc34)cn12` [Compound 488, 2-methyl-N-{3-methyl-[1,2,4]triazolo[4,3-a]pyridin-6-yl}-4-(piperazin-1-yl) indazole-7-carboxamide], for which, in the assay with HTT mRNA, the IC50 is > 10000 nM and the concentration at half-maximal activity (AC50) is > 10000 nM. Besides, in the assay on MYB mRNA, the AC50 was > 10000 nM and the IC50 was > 10000 nM.

With `Cc1nc2cc(NC(=O)c3ccc(N4CCNCC4)c4cn(C)nc34)ccn2n1` [Compound 489, 2-methyl-N-{2-methyl-[1,2,4]triazolo[1,5-a]pyridin-7-yl}-4-(piperazin-1-yl) indazole-7-carboxamide], in the assay with HTT mRNA, the concentration for half-maximal inhibition (IC50) is > 10000 nM and the AC50 was > 10000 nM. Further, in the assay on MYB mRNA, the AC50 is > 10000 nM and the IC50 was > 10000 nM.

For `Cc1cn2cc(NC(=O)c3ccc(N4CCNCC4)c4c[nH]nc34)cc(F)c2n1` [Compound 490, N-{8-fluoro-2-methylimidazo[1,2-a]pyridin-6-yl}-4-(piperazin-1-yl)-2H-indazole-7-carboxamide], in the assay on HTT mRNA, the IC50 is > 10000 nM and the AC50 is > 10000 nM. Further, in the assay on MYB mRNA, the AC50 was 1000 to 10000 nM and the IC50 lay within 1000 to 10000 nM.

Consider `CCn1cc2c(N3CC4(CCNC4)C3)ccc(C(=O)Nc3cc(F)c4nc(C)cn4c3)c2n1` [Compound 491, 4-{2,6-diazaspiro[3.4]octan-2-yl}-2-ethyl-N-{8-fluoro-2-methylimidazo[1,2-a]pyridin-6-yl}indazole-7-carboxamide], for which, in the assay on HTT mRNA, the IC50 is 1000 to 10000 nM and the concentration at half-maximal activity (AC50) is > 10000 nM. In addition, in the assay with MYB mRNA, the AC50 was in the range of 1000 to 10000 nM and the IC50 was 100 to 1000 nM.

As to `CCn1cc2c(N3CC4(CCNCC4)C3)ccc(C(=O)Nc3cc(F)c4nc(C)cn4c3)c2n1` [Compound 492, 4-{2,7-diazaspiro[3.5]nonan-2-yl}-2-ethyl-N-{8-fluoro-2-methylimidazo[1,2-a]pyridin-6-yl}indazole-7-carboxamide], in the assay with HTT mRNA, the IC50 fell in the range of 1000 to 10000 nM and the AC50 was > 10000 nM. Further, in the assay on MYB mRNA, the AC50 fell in the range of 1000 to 10000 nM and the IC50 fell in the range of 100 to 1000 nM.

With `CN1CCN(c2ccc(C(=O)Nc3cc(F)c4nc(CO)oc4c3)c3nn(C)cc23)CC1` [Compound 494, N-[4-fluoro-2-(hydroxymethyl)-1,3-benzoxazol-6-yl]-2-methyl-4-(4-methylpiperazin-1-yl) indazole-7-carboxamide], the IC50 in the assay on HTT mRNA and in the assay with MYB mRNA was > 10000 nM each time. The AC50 with HTT mRNA and in the assay with MYB mRNA was > 10000 nM each time.

For `CO[C@H]1C[C@H](n2cc3c(N4CCNCC4)ccc(C(=O)Nc4cc(F)c5nc(C)cn5c4)c3n2)C1` [Compound 496, Cis-N-(8-fluoro-2-methylimidazo[1,2-a]pyridin-6-yl)-2-((1s,3s)-3-methoxycyclobutyl)-4-(piperazin-1-yl)-2H-indazole-7-carboxamide 2,2,2-trifluoroacetate], in the assay with HTT mRNA, the half-inhibitory concentration (IC50) was > 10000 nM and the AC50 was > 10000 nM. In addition, in the assay with MYB mRNA, the AC50 is > 10000 nM and the half-inhibitory concentration (IC50) is > 10000 nM.

Take `Cc1cn2cc(NC(=O)c3ccc(N4CCNCC4)c4cn(CC5COC5)nc34)cc(F)c2n1` [Compound 497, N-{8-fluoro-2-methylimidazo[1,2-a]pyridin-6-yl}-2-(oxetan-3-ylmethyl)-4-(piperazin-1-yl) indazole-7-carboxamide]: in the assay on HTT mRNA, the IC50 lay within 100 to 1000 nM and the AC50 is 100 to 1000 nM. For the same molecule, in the assay with MYB mRNA, the AC50 is < 100 nM and the concentration for half-maximal inhibition (IC50) was < 100 nM.

Regarding `CCn1cc2c(OC3CCNC3)ccc(C(=O)Nc3cc(F)c4nc(C)cn4c3)c2n1` (stereo not shown) [Compound 498, 2-ethyl-N-{8-fluoro-2-methylimidazo[1,2-a]pyridin-6-yl}-4-(pyrrolidin-3-yloxy) indazole-7-carboxamide], in the assay with HTT mRNA, the IC50 lay within 100 to 1000 nM and the AC50 was in the range of 1000 to 10000 nM. Moreover, in the assay on MYB mRNA, the AC50 fell in the range of 100 to 1000 nM and the IC50 was 100 to 1000 nM.
